Patent US20250109370A1, “METHOD FOR PRODUCING CELL SUPPORT COMPOSITE, METHOD FOR PRODUCING DRUG EVALUATION APPARATUS, DRUG EVALUATION METHOD, AND DRUG EVALUATION APPARATUS” (NIKKISO CO., LTD., priority 2022, published 2025)

Key:
OAT1 = target: T1, OAT1 (Homo sapiens, UniProt Q4U2R8); test: Membrane transportation evaluation using Transwell: cellular intake of radiolabeled Adefovir by monolayer of re-seeded aggregate-cultured cells (Test 7); assay type: in vitro ADME
T1 construct: Adefovir is a drug as a substrate for OAT1, that is, a drug that is transported by OAT1; host or cells: human renal proximal tubule epithelial cells, aggregate-cultured and re-seeded as a monolayer on a Transwell insert
T1 sequence (Q4U2R8 1-563): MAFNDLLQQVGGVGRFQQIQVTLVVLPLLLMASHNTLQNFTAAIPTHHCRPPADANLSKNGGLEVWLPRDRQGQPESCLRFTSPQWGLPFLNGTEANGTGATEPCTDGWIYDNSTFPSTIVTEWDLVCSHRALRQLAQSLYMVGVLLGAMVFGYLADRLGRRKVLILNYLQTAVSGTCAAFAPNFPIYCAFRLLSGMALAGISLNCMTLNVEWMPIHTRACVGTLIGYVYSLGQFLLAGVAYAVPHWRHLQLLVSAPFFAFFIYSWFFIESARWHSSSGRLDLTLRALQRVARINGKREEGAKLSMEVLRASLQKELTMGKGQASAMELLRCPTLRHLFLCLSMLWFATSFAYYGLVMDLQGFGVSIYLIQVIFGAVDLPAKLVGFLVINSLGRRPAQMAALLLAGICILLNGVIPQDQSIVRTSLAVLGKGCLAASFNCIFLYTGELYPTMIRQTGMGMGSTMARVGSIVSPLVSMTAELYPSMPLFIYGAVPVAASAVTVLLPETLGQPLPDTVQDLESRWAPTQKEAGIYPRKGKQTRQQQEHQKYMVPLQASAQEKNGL
Description: (§1) First, aggregates were formed, and a cell suspension was prepared from the aggregates to thereby re-seed the cells on the insert in the same manner as in Test 2. The seeding density was set to 4×10^4/well (12×10^4 cells/cm^2). Then, on the day after re-seeding (within 18 to 24 hours of re-seeding), membrane transport evaluation was performed using Transwell. In the membrane transport evaluation, radiolabeled Adefovir and radiolabeled Metformin were used. Adefovir is a drug as a substrate for OAT1, that is, a drug that is transported by OAT1. Metformin is a drug as a substrate for OCT2, that is, a drug that is transported by OCT2.
(§2) An assay buffer with each substrate added to a HBSS buffer was added to insert of the Transwell and treated for a predetermined time. For the Adefovir test, the treatment time was 2 minutes. For the Metformin test, the treatment time was 10 minutes. The cells were then retrieved, a cell suspension was prepared, and the radioisotopes in the cell suspension were quantified. As a result, the amount of substrate intake into the cell from the cellular apical membrane side was evaluated. The amount of substrate intake was also evaluated in the same manner when an inhibitor of OAT1, Probenecid, was added to the assay buffer and when an inhibitor of OCT2, Cimetidine, was added to the assay buffer.
(§3) The assay buffer was also added to the well of the Transwell and treated for a predetermined time. For the Adefovir test, the treatment time was 2 minutes. For the Metformin test, the treatment time was 10 minutes. The cells were then retrieved, a cell suspension was prepared, and the radioisotopes in the cell suspensions were quantified. As a result, the amount of substrate intake into the cell from the cellular basement membrane side was evaluated. The amount of substrate intake was also evaluated in the same manner when an inhibitor Probenecid was added to the assay buffer and when an inhibitor Cimetidine was added to the assay buffer.
(§4) In FIG. 15A and FIG. 15B, “A to C” indicates the amount of substrate intake into the cell from the cellular apical membrane side. […]

OCT2 = target: T2, OCT2 (Homo sapiens, UniProt O15244); test: Membrane transportation evaluation using Transwell: cellular intake of radiolabeled Metformin by monolayer of re-seeded aggregate-cultured cells (Test 7); assay type: in vitro ADME
T2 sequence (O15244 1-555): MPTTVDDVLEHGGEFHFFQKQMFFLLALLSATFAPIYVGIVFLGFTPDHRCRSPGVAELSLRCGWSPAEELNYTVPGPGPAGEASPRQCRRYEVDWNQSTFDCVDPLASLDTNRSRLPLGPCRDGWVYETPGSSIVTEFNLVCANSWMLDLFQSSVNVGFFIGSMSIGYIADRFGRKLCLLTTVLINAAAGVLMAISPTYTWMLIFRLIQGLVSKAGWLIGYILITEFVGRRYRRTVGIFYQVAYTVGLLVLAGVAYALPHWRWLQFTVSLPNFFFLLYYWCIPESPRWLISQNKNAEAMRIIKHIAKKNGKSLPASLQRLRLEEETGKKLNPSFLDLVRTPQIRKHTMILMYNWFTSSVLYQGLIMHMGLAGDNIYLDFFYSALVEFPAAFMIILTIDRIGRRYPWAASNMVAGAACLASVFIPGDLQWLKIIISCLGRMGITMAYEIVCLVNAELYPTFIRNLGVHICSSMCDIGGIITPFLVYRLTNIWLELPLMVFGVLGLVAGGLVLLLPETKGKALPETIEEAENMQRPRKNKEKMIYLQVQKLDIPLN
Description: as §1, §2, §3, §4

Row | SMILES | transporter responsible for intake (OAT1; concluded from decrease with inhibitor Probenecid) | substrate intake into the cells (OAT1; radiolabeled Adefovir in HBSS buffer, 2 minutes, human renal proximal tubule epithelial cells 18 to 24 hours after re-seeding, FIG. 15A) | amount of cellular intake, basement membrane side (B to C) versus apical membrane side (A to C) (OAT1; radiolabeled Adefovir, 2 minutes, FIG. 15A) | transporter responsible for intake (OCT2; concluded from decrease with inhibitor Cimetidine) | substrate intake into the cells (OCT2; radiolabeled Metformin in HBSS buffer, 10 minutes, human renal proximal tubule epithelial cells 18 to 24 hours after re-seeding, FIG. 15B) | amount of cellular intake, basement membrane side (B to C) versus apical membrane side (A to C) (OCT2; radiolabeled Metformin, 10 minutes, FIG. 15B)
1 | Nc1ncnc2c1ncn2CCOCP(=O)(O)O [Adefovir] | due to OAT1 | taken into the cells | higher from the cellular basement membrane side than from the cellular apical membrane side | – | – | –
2 | CN(C)C(=N)N=C(N)N [Metformin] | – | – | – | due to OCT2 | taken into the cells | higher from the cellular basement membrane side than from the cellular apical membrane side
